The text below walks through data of patent US10329303B2, “Heterocyclic inhibitors of monocarboxylate transporter” (THE SCRIPPS RESEARCH INSTITUTE, priority 2015, dated 2019).

Data set [1] can be described thus: Mouse xenograft study, animal body weight. In kind it is in vivo. To be noted: Raji xenograft mice, 30 mg/kg daily, over the course of the study. As for the experimental part: (§1) Protocols follow those described in the literature.^4 Mice were transplanted with cultured tumor cells and, after an incubation period (typically 10 days), mice were left untreated or were treated daily with a 30 mg/kg dose of the test compound. Tumor volumes were measured with calipers over ˜20 days of treatment. Tumors were excised and weighed at the end of treatment. In two experiments using Raji Burkitt's lymphoma cells^4, the compounds studied were the product of example 9 (FIG. 3), code named SR-11105, and the product of example 21 (FIG. 4), code named SR-13779.

The test system of data set [2] is Raji Burkitt's lymphoma cells. Briefly: Mouse xenograft study, tumor volume and tumor weight. In kind it is in vivo. To be noted: Raji xenograft in mice, 30 mg/kg daily; for final tumor mass: tumor mass measured at day 29, relative to vehicle; for tumor growth over time (tumor volume): ~20 days of treatment, relative to vehicle. As for the experimental part:
as §1

The subject of data set [3] is Raji (Burkitt's) lymphoma cells. Briefly: MTT assay for 4-day viability of Raji (Burkitt's) lymphoma cells. To be noted: Homo sapiens, 96 h, Raji cells (highly express MCT1), read-out: approximate potency (EC50). In kind it is cell-based. An excerpt: Specific Examples 1-52 of compounds of the invention, with estimated EC50 values determined using an MTT assay for 4-day viability of Raji (Burkitt's) lymphoma cells, a cell line known to highly express MCT1 and to be sensitive to small molecule MCT inhibitors,^4 are shown in Table 2. Assay protocols follow those described in the literature.^4 Other assays that are not described here but that are standard in the field, such as an assay for competitive inhibition of transport of radiolabeled lactic acid, an MCT substrate, may also be useful in establishing mechanism of action of these compounds.

Entries after “also recorded” stand apart in the source; their conditions may differ. Bounds are passed on as bounds.

A word on the EC50: it is the midpoint of the concentration-response curve. On to `Cc1n[nH]c(C)c1Cc1sc2c(c1-c1ccc(F)c(CO)c1)c(=O)n(C)c(=O)n2CC(C)C` [Example 9, 6-((3,5-dimethyl-1H-pyrazol-4-yl)methyl)-5-(4-fluoro-3-(hydroxymethyl)phenyl)-1-isobutyl-3-methylthieno[2,3-d]pyrimidine-2,4(1H,3H)-dione], for which the animal body weight result in data set [1] is “maintained their body weight”. Besides, in data set [2], the final tumor mass result is on record as “significant reduction in final tumor mass” and the “tumor growth over time (tumor volume)” value is “significant reduction of tumor growth rate”. Besides, in data set [3], the EC50 was at most 20 nM.

In the case of `Cc1n[nH]c(C)c1Cc1sc2c(c1-c1ccc(F)c(CO)c1F)c(=O)n(C1CC1)c(=O)n2CC(C)C` [Example 21, 3-cyclopropyl-5-(2,4-difluoro-3-(hydroxymethyl)phenyl)-6-((3,5-dimethyl-1H-pyrazol-4-yl)methyl)-1-isobutylthieno[2,3-d]pyrimidine-2,4(1H,3H)-dione], the animal body weight entry in data set [1] is listed as “maintained their body weight”. In addition, the final tumor mass entry in data set [2] (listed as SR-13779) is listed as “significant reduction in final tumor mass; also recorded: more pronounced effect”. Also, the “tumor growth over time (tumor volume)” value in data set [2] is “effectively blocked tumor growth”. The EC50 in data set [3] is at most 20 nM.

Regarding `CC(C)Cc1nn(C)c(=O)c2c(-c3cc(CO)ccc3F)n(Cc3ccc(-c4ccccc4)cc3)cc12` [Example 41, 6-([1,1′-biphenyl]-4-ylmethyl)-7-(2-fluoro-5-(hydroxymethyl)phenyl)-4-isobutyl-2-methyl-2,6-dihydro-1H-pyrrolo[3,4-d]pyridazin-1-one], the EC50 in data set [3] was found to be 800 nM.

Regarding `CC(C)Cc1nn(C)c(=O)c2c(-c3cccc(C(C)O)c3)n(Cc3ccc(-c4ccccc4)cc3)cc12` (centres unmarked) [Example 42, 6-([1,1′-biphenyl]-4-ylmethyl)-7-(3-(1-hydroxyethyl)phenyl)-4-isobutyl-2-methyl-2,6-dihydro-1H-pyrrolo[3,4-d]pyridazin-1-one], the EC50 in data set [3] was 1000 to 10000 nM.

For the compound `Cc1n[nH]c(C)c1Cn1cc2c(CC(C)C)nn(C)c(=O)c2c1-c1cccc(CO)c1` [Example 43, 6-((3,5-dimethyl-1H-pyrazol-4-yl)methyl)-7-(3-(hydroxymethyl)phenyl)-4-isobutyl-2-methyl-2,6-dihydro-1H-pyrrolo[3,4-d]pyridazin-1-one], the EC50 in data set [3] was 500 nM.

For `Cc1n[nH]c(C)c1Cn1cc2c(CC(C)C)nn(C)c(=O)c2c1-c1cc(CO)ccc1F` [Example 44, 6-((3,5-dimethyl-1H-pyrazol-4-yl)methyl)-7-(2-fluoro-5-(hydroxymethyl)phenyl)-4-isobutyl-2-methyl-2,6-dihydro-1H-pyrrolo[3,4-d]pyridazin-1-one], the EC50 in data set [3] is 200 nM.

For the compound `Cc1n[nH]c(C)c1Cn1cc2c(CC(C)C)nn(C)c(=O)c2c1-c1cccc(C(O)C(F)(F)F)c1` (centres unmarked) [Example 45, 6-((3,5-dimethyl-1H-pyrazol-4-yl)methyl)-4-isobutyl-2-methyl-7-(3-(2,2,2-trifluoro-1-hydroxyethyl)phenyl)-2,6-dihydro-1H-pyrrolo[3,4-d]pyridazin-1-one], in data set [3], the EC50 was at most 20 nM.

Consider `CC(C)Cc1nn(C)c(=O)c2c(-c3cccc(CO)c3)n(Cc3cc(Cl)nc4ccccc34)cc12` [Example 46, 6-((2-chloroquinolin-4-yl)methyl)-7-(3-(hydroxymethyl)phenyl)-4-isobutyl-2-methyl-2,6-dihydro-1H-pyrrolo[3,4-d]pyridazin-1-one], for which the EC50 in data set [3] was 1000 to 10000 nM.

Take `CC(C)Cc1nn(C)c(=O)c2c(-c3cccc(CO)c3)n(Cc3cnc(Cl)c4ccccc34)cc12` [Example 47, 6-((1-chloroisoquinolin-4-yl)methyl)-7-(3-(hydroxymethyl)phenyl)-4-isobutyl-2-methyl-2,6-dihydro-1H-pyrrolo[3,4-d]pyridazin-1-one]: the EC50 in data set [3] is 1000 to 10000 nM.

Consider `CC(C)Cc1nn(C)c(=O)c2c(-c3cccc(CO)c3)n(CCOc3ccccc3Cl)cc12` [Example 48, 6-(2-(2-chlorophenoxy)ethyl)-7-(3-(hydroxymethyl)phenyl)-4-isobutyl-2-methyl-2,6-dihydro-1H-pyrrolo[3,4-d]pyridazin-1-one], for which the EC50 in data set [3] fell in the range of 1000 to 10000 nM.

In the case of `CC(C)Cc1nn(C)c(=O)c2c(-c3cccc(CO)c3)n(Cc3cc(NCCCCCN)nc4ccccc34)cc12` [Example 49, 6-((2-((5-aminopentyl)amino)quinolin-4-yl)methyl)-7-(3-(hydroxymethyl)phenyl)-4-isobutyl-2-methyl-2,6-dihydro-1H-pyrrolo[3,4-d]pyridazin-1-one], the EC50 in data set [3] lay in the range of 1000 to 10000 nM.
